{"source": "ChEMBL document CHEMBL5360532", "about": "“Current scenario of quinolone hybrids with potential antibacterial activity against ESKAPE pathogens” (Eur J Med Chem, 2023)", "key": {"[1]": {"tested_on": "Mycobacterium tuberculosis", "assay": "Potency index, ratio of isoniazid MIC to test compound MIC for antimycobacterial activity against Mycobacterium tuberculosis H37Rv assessed as bacterial growth inhibition by broth microdilution assay", "type": "functional"}, "[2]": {"tested_on": "Staphylococcus aureus", "assay": "Antibacterial activity against Staphylococcus aureus assessed as bacterial growth inhibition by broth microdilution assay", "type": "functional"}, "[3]": {"tested_on": "Mycobacterium tuberculosis", "assay": "Potency index, ratio of rifampicin MIC to test compound MIC for antimycobacterial activity against Mycobacterium tuberculosis H37Rv assessed as bacterial growth inhibition by broth microdilution assay", "type": "functional"}, "[4]": {"tested_on": "Staphylococcus aureus", "assay": "Potency index, ratio of ciprofloxacin MIC to test compound MIC for antimicrobial activity against Staphylococcus aureus assessed as bacterial growth inhibition by agar cup diffusion assay", "type": "functional"}, "[5]": {"tested_on": "Mycobacterium tuberculosis", "assay": "Antimycobacterial activity against Mycobacterium tuberculosis H37Rv assessed as bacterial growth inhibition by broth microdilution assay", "type": "functional"}, "[6]": {"tested_on": "Staphylococcus aureus", "assay": "Antibacterial activity against ciprofloxacin resistant Staphylococcus aureus assessed as bacterial growth inhibition by broth microdilution assay", "type": "functional"}, "[7]": {"tested_on": "Staphylococcus aureus", "assay": "Antibacterial activity against methicillin resistant Staphylococcus aureus assessed as bacterial growth inhibition by microdilution assay", "type": "functional"}, "[8]": {"tested_on": "Pseudomonas aeruginosa", "assay": "Antibacterial activity against Pseudomonas aeruginosa assessed as bacterial growth inhibition by broth microdilution assay", "type": "functional"}, "[9]": {"tested_on": "Escherichia coli", "assay": "Potency index, ratio of ampicillin MIC to test compound MIC for antimicrobial activity against Escherichia coli assessed as bacterial growth inhibition by broth microdilution assay", "type": "functional"}, "[10]": {"tested_on": "Staphylococcus aureus", "assay": "Potency index, ratio of ampicillin MIC to test compound MIC for antimicrobial activity against Staphylococcus aureus assessed as bacterial growth inhibition by broth microdilution assay", "type": "functional"}, "[11]": {"tested_on": "Escherichia coli", "assay": "Antibacterial activity against Escherichia coli assessed as bacterial growth inhibition by broth microdilution assay", "type": "functional"}, "[12]": {"tested_on": "Pseudomonas aeruginosa", "assay": "Potency index, ratio of ampicillin MIC to test compound MIC for antimicrobial activity against Pseudomonas aeruginosa assessed as bacterial growth inhibition by broth microdilution assay", "type": "functional"}, "[13]": {"tested_on": "Staphylococcus aureus", "assay": "Antibacterial activity against Staphylococcus aureus assessed as zone of inhibition at 50 mg/ml cup plate assay", "type": "functional", "conditions": "read-out: IZ"}, "[14]": {"tested_on": "Escherichia coli", "assay": "Antibacterial activity against Escherichia coli assessed as zone of inhibition at 50 mg/ml cup plate assay", "type": "functional", "conditions": "read-out: IZ"}, "[15]": {"tested_on": "Mycobacterium tuberculosis", "assay": "Antimycobacterial activity against Mycobacterium tuberculosis H37Rv assessed as bacterial growth inhibition by LJ slant assay", "type": "functional"}, "[16]": {"tested_on": "Mycobacterium tuberculosis", "assay": "Antimycobacterial activity against extensive drug Mycobacterium tuberculosis assessed as bacterial growth inhibition by LJ slant assay", "type": "functional"}, "[17]": {"tested_on": "Mycobacterium tuberculosis", "assay": "Potency index, ratio of ciprofloxacin MIC to test compound MIC for antimycobacterial activity against Mycobacterium tuberculosis H37Rv assessed as bacterial growth inhibition by LJ slant assay", "type": "functional"}, "[18]": {"tested_on": "Mycobacterium tuberculosis", "assay": "Antimycobacterial activity against multidrug Mycobacterium tuberculosis assessed as bacterial growth inhibition by LJ slant assay", "type": "functional"}, "[19]": {"tested_on": "Mycobacterium tuberculosis", "assay": "Antimycobacterial activity against Mycobacterium tuberculosis H37Rv assessed as zone of inhibition at 50 mg/ml by agar well diffusion assay", "type": "functional", "conditions": "read-out: IZ"}, "[20]": {"tested_on": "Enterococcus faecalis", "assay": "Antibacterial activity against Enterococcus faecalis assessed as zone of inhibition at 50 mg/ml by agar well diffusion assay", "type": "functional", "conditions": "read-out: IZ"}, "[21]": {"tested_on": "Escherichia coli", "assay": "Antibacterial activity against Escherichia coli assessed as zone of inhibition at 50 mg/ml by agar well diffusion assay", "type": "functional", "conditions": "read-out: IZ"}, "[22]": {"tested_on": "Mycobacterium tuberculosis", "assay": "Antimycobacterial activity against Mycobacterium tuberculosis H37Rv assessed as bacterial growth inhibition", "type": "functional"}, "[23]": {"tested_on": "Staphylococcus aureus", "assay": "Antibacterial activity against Staphylococcus aureus assessed as zone of inhibition at 50 mg/ml by agar well diffusion assay", "type": "functional", "conditions": "read-out: IZ"}, "[24]": {"tested_on": "Streptococcus pneumoniae", "assay": "Antibacterial activity against Streptococcus pneumoniae assessed as zone of inhibition at 50 mg/ml by agar well diffusion assay", "type": "functional", "conditions": "read-out: IZ"}, "[25]": {"tested_on": "HT-29", "assay": "Anticancer activity against human HT-29 cell assessed as cell growth inhibition measured after 24 to 72 hrs by MTT assay", "type": "functional, cell-based"}, "[26]": {"assay": "Anticancer activity against EAC cell assessed as cell growth inhibition measured after 24 to 72 hrs by MTT assay", "type": "functional, cell-based", "conditions": "Ehrlich"}, "[27]": {"tested_on": "MCF7", "assay": "Anticancer activity against human MCF7 cell assessed as cell growth inhibition measured after 24 to 72 hrs by MTT assay", "type": "functional, cell-based"}, "[28]": {"tested_on": "WRL68", "assay": "Anticancer activity against human WRL68 cell assessed as cell growth inhibition measured after 24 to 72 hrs by MTT assay", "type": "functional, cell-based"}, "[29]": {"tested_on": "Escherichia coli", "assay": "Antibacterial activity against Escherichia coli ATCC 10536 assessed as bacterial growth inhibition measured after 24 to 48 hrs by agar dilution assay", "type": "functional", "conditions": "time 24-48 hrs"}, "[30]": {"tested_on": "Pseudomonas aeruginosa", "assay": "Antibacterial activity against Pseudomonas aeruginosa ATCC 11632 assessed as bacterial growth inhibition measured after 24 to 48 hrs by agar dilution assay", "type": "functional", "conditions": "time 24-48 hrs"}, "[31]": {"tested_on": "Klebsiella pneumoniae", "assay": "Antibacterial activity against Klebsiella pneumoniae assessed as bacterial growth inhibition by broth microdilution assay", "type": "functional"}, "[32]": {"tested_on": "Acinetobacter baumannii", "assay": "Antibacterial activity against Acinetobacter baumannii assessed as bacterial growth inhibition by broth microdilution assay", "type": "functional"}}}
{"compound": "O=C(CSc1nnc(N2CCN(c3cc4c(cc3F)c(=O)c(C(=O)O)cn4C3CC3)CC2)s1)c1ccc([N+](=O)[O-])cc1", "values": [{"measurement": "Ratio", "setting": "[1]", "value": 3}, {"measurement": "MIC", "setting": "[2]", "value": 1, "unit": "µg/mL"}, {"measurement": "Ratio", "setting": "[3]", "value": 2}, {"measurement": "Ratio", "setting": "[4]", "value": 2}, {"measurement": "MIC", "setting": "[5]", "value": 0.5, "unit": "µg/mL"}]}
{"compound": "CCCCCC(=O)N(CCNCCNc1ccc(CN2CCN(c3cc4c(cc3F)CC(C(=O)O)=CN4C3CC3)CC2)cc1)CCN(CCN(CCN(CCN(CCN(CCN(CCN(CCN(CCN(CCN(CCN(CCN(CCN(CCN(CCN(CCN(CCN(CCN(CCN(CCN(CCN(CCN(CCN(CCN(CCN(CCN(CCN(CCN(CCN(CCN(CCNC(C)=O)C(C)=O)C(C)=O)C(C)=O)C(C)=O)C(C)=O)C(C)=O)C(C)=O)C(C)=O)C(C)=O)C(C)=O)C(C)=O)C(C)=O)C(C)=O)C(C)=O)C(C)=O)C(C)=O)C(C)=O)C(C)=O)C(C)=O)C(C)=O)C(C)=O)C(C)=O)C(C)=O)C(C)=O)C(C)=O)C(C)=O)C(C)=O)C(=O)CCCCC)C(=O)CCCCC)C(=O)CCCCC", "values": [{"measurement": "MIC", "setting": "[6]", "value": 0.44, "unit": "µg/mL"}]}
{"compound": "CCCCC(=O)N(CCNCCNc1ccc(CN2CCN(c3cc4c(cc3F)CC(C(=O)O)=CN4C3CC3)CC2)cc1)CCN(CCN(CCN(CCN(CCN(CCN(CCN(CCN(CCN(CCN(CCN(CCN(CCN(CCN(CCN(CCN(CCN(CCN(CCN(CCN(CCN(CCN(CCN(CCN(CCN(CCN(CCN(CCN(CCN(CCNC(C)=O)C(C)=O)C(C)=O)C(C)=O)C(C)=O)C(C)=O)C(C)=O)C(C)=O)C(C)=O)C(C)=O)C(C)=O)C(C)=O)C(C)=O)C(C)=O)C(C)=O)C(=O)CCCC)C(=O)CCCC)C(=O)CCCC)C(=O)CCCC)C(=O)CCCC)C(=O)CCCC)C(=O)CCCC)C(=O)CCCC)C(=O)CCCC)C(=O)CCCC)C(=O)CCCC)C(=O)CCCC)C(=O)CCCC)C(=O)CCCC)C(=O)CCCC", "values": [{"measurement": "MIC", "setting": "[6]", "value": 0.62, "unit": "µg/mL"}]}
{"compound": "COP(=O)(OC)C(c1cc(C(C)(C)C)c(O)c(C(C)(C)C)c1)N1CCN(c2cc3c(cc2F)c(=O)c(C(=O)O)cn3C2CC2)CC1", "note": "(stereo unspecified)", "values": [{"measurement": "MIC", "setting": "[7]", "value": 0.5, "unit": "µg/mL"}]}
{"compound": "CCn1cc(C(=O)NN2C(=O)/C(=C/C=C/c3ccccc3)SC2=S)c(=O)c2cc(F)ccc21", "values": [{"measurement": "MIC", "setting": "[2]", "value": "< 1", "unit": "µg/mL"}, {"measurement": "MIC", "setting": "[8]", "value": "< 1", "unit": "µg/mL"}, {"measurement": "Ratio", "setting": "[9]", "value": ">10"}, {"measurement": "Ratio", "setting": "[10]", "value": ">10"}, {"measurement": "MIC", "setting": "[11]", "value": "< 1", "unit": "µg/mL"}, {"measurement": "Ratio", "setting": "[12]", "value": ">10"}]}
{"compound": "O=c1c(-c2nnc(S)o2)cn(C2CC2)c2cc(N3CCNCC3)c(F)cc12", "values": [{"measurement": "zone of inhibition at 50000 µg/mL", "setting": "[13]", "value": 13, "unit": "mm"}, {"measurement": "zone of inhibition at 50000 µg/mL", "setting": "[14]", "value": 12, "unit": "mm"}, {"measurement": "MIC", "setting": "[15]", "value": 0.063, "unit": "µg/mL"}, {"measurement": "MIC", "setting": "[16]", "value": 0.063, "unit": "µg/mL"}, {"measurement": "Ratio", "setting": "[17]", "value": ">=32"}, {"measurement": "MIC", "setting": "[18]", "value": 0.063, "unit": "µg/mL"}]}
{"compound": "CCn1cc(-c2nnc(S(=O)(=O)Cc3ccc(OC)cc3)o2)c(=O)c2cc(F)c(N3CCN(C)CC3)cc21", "values": [{"measurement": "zone of inhibition at 50000 µg/mL", "setting": "[19]", "value": 26, "unit": "mm"}, {"measurement": "zone of inhibition at 50000 µg/mL", "setting": "[20]", "value": 26, "unit": "mm"}, {"measurement": "zone of inhibition at 50000 µg/mL", "setting": "[21]", "value": 26, "unit": "mm"}, {"measurement": "MIC", "setting": "[22]", "value": 16.2, "unit": "µg/mL"}, {"measurement": "zone of inhibition at 50000 µg/mL", "setting": "[23]", "value": 26, "unit": "mm"}, {"measurement": "zone of inhibition at 50000 µg/mL", "setting": "[24]", "value": 26, "unit": "mm"}]}
{"compound": "O=C(CNc1ccc(-c2nc3ccc(Cl)c(Cl)c3s2)cc1)c1c(O)c2ccccc2n(-c2ccccc2)c1=O", "values": [{"measurement": "IC50", "setting": "[25]", "value": 0.398, "unit": "µM"}, {"measurement": "IC50", "setting": "[26]", "value": 0.398, "unit": "µM"}, {"measurement": "IC50", "setting": "[27]", "value": 0.398, "unit": "µM"}, {"measurement": "IC50", "setting": "[28]", "value": 0.398, "unit": "µM"}, {"measurement": "MIC", "setting": "[29]", "value": 0.5, "unit": "µg/mL"}, {"measurement": "MIC", "setting": "[30]", "value": 1, "unit": "µg/mL"}]}
{"compound": "Cc1[nH]c(C(=O)Nc2nc3ccc(NC(=O)CCN4CCN(c5cc6c(cc5F)c(=O)c(C(=O)O)cn6C5CC5)CC4)cc3s2)c(Cl)c1Cl", "values": [{"measurement": "MIC", "setting": "[8]", "value": 0.25, "unit": "µg/mL"}, {"measurement": "MIC", "setting": "[31]", "value": 0.25, "unit": "µg/mL"}, {"measurement": "MIC", "setting": "[11]", "value": 0.004, "unit": "µg/mL"}, {"measurement": "MIC", "setting": "[32]", "value": 0.25, "unit": "µg/mL"}]}
